{"source": "patent US20160038518A1", "about": "“METHODS FOR TREATING PSORIASIS AND VASCULAR INFLAMMATION” (VASCULAR BIOGENICS LTD., priority 2012, published 2016)", "key": {"[1]": {"tested_on": "inflammation associated with the breast implants", "test": "18-FDG PET/CT of a patient with breast implants", "assay_type": "in vivo, human", "settings": "one patient, 20 mg/day, 12 weeks, FIG. 6", "procedure": "A patient with breast implants was treated with VD-201 at 20 mg/day for 12 weeks. PET-CT scans were done at baseline and at 12 weeks, using positron emission computed tomography (PET/CT) imaging quantifying 18-fluorodeoxyglucose (18-FDG) uptake as a TBR as described in Example 1."}, "[2]": {"tested_on": "humans", "test": "tolerability of daily dose in human clinical studies", "assay_type": "in vivo"}, "[3]": {"tested_on": "moderate to severe plaque psoriasis", "test": "randomized, double-blind Phase II clinical study in plaque psoriasis (PGA, PtGA, PASI)", "assay_type": "in vivo, human", "settings": "for average reduction of PASI score: 12 weeks", "procedure": "Patients were screened for eligibility and, up to 28 days later, at the baseline visit, randomized to one of three treatment groups (1:1:1): VB-201 20 mg/day: VB-201 80 mg/day: placebo/day. Patients consumed 2 capsules per day (VB-201 20 mg+placebo, VB-201 40 mg+40 mg, or 2× placebo). To ensure that the treatment assignments were concealed, all patients received 2 matching capsules of VB-201 or placebo.\nThe efficacy analyses were performed on the data from a modified intention-to-treat (MITT) population (defined as all patients randomized who received at least one dose of medication and had at least one efficacy evaluation). The safety analyses were performed on all randomized patients who received at least one dose of the drug.\nA randomized, double-blind Phase II clinical study was performed in subjects with moderate to severe plaque psoriasis, in order to determine the efficacy of VB-201 in treating this condition. […] Patients underwent a wash-out period following any previous treatments. After screening and establishment of a baseline, eligible subjects were randomly assigned to receive 20 mg per day VB-201, 80 mg per day VB-201 or a daily placebo, for a period of 12 weeks.\nDoses were administered orally at breakfast time with food. The maximal dose of VB-201 (80 mg/day) was determined according to earlier tolerability results (see, e.g., Example 4 of WO2011/083465).\nEfficacy of each dosage level of VB-201 relative to placebo was determined according to the percentage of patients which achieved at least a 50% or 75% improvement over baseline PASI score at week 12.\nStatistical comparisons were performed using a two-sided comparison with a 5% level of significance. All analyses were performed using Statistical Analysis Software (SAS®) Version 9.2.\nCategorical analyses of Physician's Global Assessment and Patient's Psoriasis Global Assessment scores at Baseline, Week 8 and Week 12 were analyzed.\nThe Physician's Global Assessment (PGA) score was based on a 5-point scale with possible outcomes 0=clear, 1=almost clear, 2=mild, 3=moderate and 4=severe.\nThe Patient's Psoriasis Global Assessment (PtGA) score was based on a 6-point scale with possible outcomes 0=clear, 1=almost clear, 2=mild, 3=moderate, and 4 severe and 5=worst psoriasis has ever been.\nThe analyses that follow use the categorical nature of the PGA and PtGA, i.e. the 5-point or 6-point ordered scale which was considered more relevant than a continuous approach.\nThe proportion of patients with baseline, week 8 and week 12 PGA scores 0-3 vs. 4 (Clear or Almost Clear or Mild or Moderate vs. Severe) and PtGA scores of 0-2 vs. 3-5 (Clear or Almost Clear or Mild vs. Moderate or Severe or Worse).\nPairwise comparisons between placebo and each active dose group was made using Fisher's exact tests at the 5% level of significance."}}, "note": "Values joined by “and” are separate entries in the source; they are usually repeats but may differ in a detail not shown here. Equal values may be shown once."}
{"compound": "CCCCCCCCCCCCCCCCOC[C@H](COP(=O)([O-])OCC[N+](C)(C)C)OCCCCC(=O)O", "note": "[VB-201, 1-hexadecyl-2-(4′-carboxy)butyl-sn-glycero-3-phosphocholine]", "values": [{"measurement": "inflammation surrounding the breast implants (18-FDG uptake)", "setting": "[1]", "result": "reduced inflammation surrounding the breast implants"}, {"measurement": "gastrointestinal events", "setting": "[2]; higher dose (e.g., 160 mg/day) in multiple sub-doses e.g. 12 hours apart, each about 80 mg or less", "result": "largely avoided"}, {"measurement": "tolerability", "setting": "[2]; humans, single daily dose", "result": "well tolerated up to a dose of about 80 mg/day"}, {"measurement": "gastrointestinal events (G-I intolerance, mainly nausea and vomiting)", "setting": "[2]; larger doses (e.g., 160 mg/day) as a single daily dose", "result": "associated with certain gastrointestinal events"}, {"measurement": "PGA decrease from baseline to week 12 versus placebo", "setting": "[3]; 20 mg", "result": "statistically superior to that with placebo"}, {"measurement": "PGA odds ratio, ordered logistic regression under the proportional odds model", "setting": "[3]; 20 mg and 80 mg groups combined vs placebo, p=0.049, CI=1.00-3.65", "result": 1.91}, {"measurement": "Patient Global Assessment decrease from baseline to week 12 versus placebo", "setting": "[3]; 20 mg, p=0.12", "result": "trend for efficacy"}, {"measurement": "PGA 0-3 (No/Almost Clear/Mild/Mod), % of patients", "setting": "[3]; 20 mg/day, Baseline", "result": 83.87, "unit": "%"}, {"measurement": "PGA 0-3 (No/Almost Clear/Mild/Mod), Freq.", "setting": "[3]; 20 mg/day, Baseline", "result": 52}, {"measurement": "PGA 4 (Severe), % of patients", "setting": "[3]; 20 mg/day, Baseline", "result": 16.13, "unit": "%"}, {"measurement": "PGA 4 (Severe), Freq.", "setting": "[3]; 20 mg/day, Baseline", "result": 10}, {"measurement": "PtGA 0-2 (No/Almost Clear/Mild), % of patients", "setting": "[3]; 20 mg/day, Baseline", "result": 11.29, "unit": "%"}, {"measurement": "PtGA 0-2 (No/Almost Clear/Mild), Freq.", "setting": "[3]; 20 mg/day, Baseline", "result": 7}, {"measurement": "PtGA 3-5 (Mod/Severs/Worse), % of patients", "setting": "[3]; 20 mg/day, Baseline", "result": 88.71, "unit": "%"}, {"measurement": "PtGA 3-5 (Mod/Severs/Worse), Freq.", "setting": "[3]; 20 mg/day, Baseline", "result": 55}, {"measurement": "PGA 0-3 (No/Almost Clear/Mild/Mod), % of patients", "setting": "[3]; 20 mg/day, Week 8", "result": 96.8, "unit": "%"}, {"measurement": "PGA 0-3 (No/Almost Clear/Mild/Mod), Freq.", "setting": "[3]; 20 mg/day, Week 8", "result": 60}, {"measurement": "PGA 4 (Severe), % of patients", "setting": "[3]; 20 mg/day, Week 8", "result": "3.2% and 3.23%"}, {"measurement": "PGA 4 (Severe), Freq.", "setting": "[3]; 20 mg/day, Week 8", "result": 2}, {"measurement": "PtGA 0-2 (No/Almost Clear/Mild), % of patients", "setting": "[3]; 20 mg/day, Week 8", "result": 32.26, "unit": "%"}, {"measurement": "PtGA 0-2 (No/Almost Clear/Mild), Freq.", "setting": "[3]; 20 mg/day, Week 8", "result": 20}, {"measurement": "PtGA 3-5 (Mod/Severs/Worse), % of patients", "setting": "[3]; 20 mg/day, Week 8", "result": 67.74, "unit": "%"}, {"measurement": "PtGA 3-5 (Mod/Severs/Worse), Freq.", "setting": "[3]; 20 mg/day, Week 8", "result": 42}, {"measurement": "PGA 0-3 (No/Almost Clear/Mild/Mod), % of patients", "setting": "[3]; 20 mg/day, Week 12/EOT", "result": 95.16, "unit": "%"}, {"measurement": "PGA 0-3 (No/Almost Clear/Mild/Mod), Freq.", "setting": "[3]; 20 mg/day, Week 12/EOT", "result": 59}, {"measurement": "PGA 4 (Severe), % of patients", "setting": "[3]; 20 mg/day, Week 12/EOT", "result": "4.8% and 4.84%"}, {"measurement": "PGA 4 (Severe), Freq.", "setting": "[3]; 20 mg/day, Week 12/EOT", "result": 3}, {"measurement": "PtGA 0-2 (No/Almost Clear/Mild), % of patients", "setting": "[3]; 20 mg/day, Week 12/EOT", "result": 30.65, "unit": "%"}, {"measurement": "PtGA 0-2 (No/Almost Clear/Mild), Freq.", "setting": "[3]; 20 mg/day, Week 12/EOT", "result": 19}, {"measurement": "PtGA 3-5 (Mod/Severs/Worse), % of patients", "setting": "[3]; 20 mg/day, Week 12/EOT", "result": 69.35, "unit": "%"}, {"measurement": "PtGA 3-5 (Mod/Severs/Worse), Freq.", "setting": "[3]; 20 mg/day, Week 12/EOT", "result": 43}, {"measurement": "PGA decrease from baseline to week 12 versus placebo", "setting": "[3]; 80 mg", "result": "trend for efficacy"}, {"measurement": "Patient Global Assessment odds ratio, ordered logistic regression under the proportional odds model", "setting": "[3]; 80 mg vs. placebo, p=0.047, CI=1.01-3.80", "result": 1.96}, {"measurement": "Patient Global Assessment decrease from baseline to week 12 versus placebo", "setting": "[3]; 80 mg, p=0.02", "result": "statistically superior to that with placebo"}, {"measurement": "PGA 0-3 (No/Almost Clear/Mild/Mod), % of patients", "setting": "[3]; 80 mg/day, Baseline", "result": 79.31, "unit": "%"}, {"measurement": "PGA 0-3 (No/Almost Clear/Mild/Mod), Freq.", "setting": "[3]; 80 mg/day, Baseline", "result": 46}, {"measurement": "PGA 4 (Severe), % of patients", "setting": "[3]; 80 mg/day, Baseline", "result": 20.69, "unit": "%"}, {"measurement": "PGA 4 (Severe), Freq.", "setting": "[3]; 80 mg/day, Baseline", "result": 12}, {"measurement": "PtGA 0-2 (No/Almost Clear/Mild), % of patients", "setting": "[3]; 80 mg/day, Baseline", "result": 11.86, "unit": "%"}, {"measurement": "PtGA 0-2 (No/Almost Clear/Mild), Freq.", "setting": "[3]; 80 mg/day, Baseline", "result": 7}, {"measurement": "PtGA 3-5 (Mod/Severs/Worse), % of patients", "setting": "[3]; 80 mg/day, Baseline", "result": 88.14, "unit": "%"}, {"measurement": "PtGA 3-5 (Mod/Severs/Worse), Freq.", "setting": "[3]; 80 mg/day, Baseline", "result": 52}, {"measurement": "PGA 0-3 (No/Almost Clear/Mild/Mod), % of patients", "setting": "[3]; 80 mg/day, Week 8", "result": 91.53, "unit": "%"}, {"measurement": "PGA 0-3 (No/Almost Clear/Mild/Mod), Freq.", "setting": "[3]; 80 mg/day, Week 8", "result": 54}, {"measurement": "PGA 4 (Severe), % of patients", "setting": "[3]; 80 mg/day, Week 8", "result": "8.5% and 8.47%"}, {"measurement": "PGA 4 (Severe), Freq.", "setting": "[3]; 80 mg/day, Week 8", "result": 5}, {"measurement": "PtGA 0-2 (No/Almost Clear/Mild), % of patients", "setting": "[3]; 80 mg/day, Week 8", "result": 33.90, "unit": "%"}, {"measurement": "PtGA 0-2 (No/Almost Clear/Mild), Freq.", "setting": "[3]; 80 mg/day, Week 8", "result": 20}, {"measurement": "PtGA 3-5 (Mod/Severs/Worse), % of patients", "setting": "[3]; 80 mg/day, Week 8", "result": 66.1, "unit": "%"}, {"measurement": "PtGA 3-5 (Mod/Severs/Worse), Freq.", "setting": "[3]; 80 mg/day, Week 8", "result": 39}, {"measurement": "PGA 0-3 (No/Almost Clear/Mild/Mod), % of patients", "setting": "[3]; 80 mg/day, Week 12/EOT", "result": 93.22, "unit": "%"}, {"measurement": "PGA 0-3 (No/Almost Clear/Mild/Mod), Freq.", "setting": "[3]; 80 mg/day, Week 12/EOT", "result": 55}, {"measurement": "PGA 4 (Severe), % of patients", "setting": "[3]; 80 mg/day, Week 12/EOT", "result": "6.8% and 6.78%"}, {"measurement": "PGA 4 (Severe), Freq.", "setting": "[3]; 80 mg/day, Week 12/EOT", "result": 4}, {"measurement": "PtGA 0-2 (No/Almost Clear/Mild), % of patients", "setting": "[3]; 80 mg/day, Week 12/EOT", "result": 38.98, "unit": "%"}, {"measurement": "PtGA 0-2 (No/Almost Clear/Mild), Freq.", "setting": "[3]; 80 mg/day, Week 12/EOT", "result": 23}, {"measurement": "PtGA 3-5 (Mod/Severs/Worse), % of patients", "setting": "[3]; 80 mg/day, Week 12/EOT", "result": "61.0% and 61.02%"}, {"measurement": "PtGA 3-5 (Mod/Severs/Worse), Freq.", "setting": "[3]; 80 mg/day, Week 12/EOT", "result": 36}, {"measurement": "correlation between VB-201 plasma levels and PASI, PGA and PtGA efficacy endpoints", "setting": "[3]; PGA p=0.04, PtGA p=0.001, FIG. 10", "result": "statistically significant dose response"}, {"measurement": "efficacy compared to placebo in subgroups (exploratory analyses)", "setting": "[3]; baseline PASI 14.3-18.5, age ≦46 years, BSA 16%-24%, psoriasis up to 20 years, no previous immunosuppressants or biologicals, elevated baseline hs-CRP", "result": "greater trends for efficacy"}, {"measurement": "time course of the efficacy endpoints", "setting": "[3]; over 3 months of treatment", "result": "continued to improve overtime and had not reached a plateau at 3 months"}, {"measurement": "average reduction of PASI score", "setting": "[3]; patients in quartile 1 of trough level", "result": "about 18%"}, {"measurement": "average reduction of PASI score", "setting": "[3]; patients in quartile 4 of trough level, p=0.009", "result": "about 45%"}, {"measurement": "percent change from baseline in PASI at 12 weeks versus trough level", "setting": "[3]; sub-population with baseline PASI score of about 14.3 to about 18.5, FIG. 9", "result": "significantly dependent on the trough level of VB-201"}, {"measurement": "PASI 50 response rates and reductions in BSA compared to placebo", "setting": "[3]; week 12", "result": "Trends for favorable efficacy"}]}
